Test system: glucose-6-phosphate
Conditions: micropost tips 40% G6PD and 60% PEO 200 k, versus uncompressed powder
Description: To perform the activity assay on G6PD, an activity assay kit (Sigma Aldrich) was used which measures the amount of oxidized glucose-6-phosphate. […] Duplicate assays were performed on the dissolved solution.

glucose-6-phosphate dehydrogenase
G6PD activity after the manufacturing process: maintain their activity
